These results are taken from patent publication US9969742B2, “Imidazotriazinone compounds” (Ironwood Pharmaceuticals, Inc., priority 2012, dated 2018).

Type in all cases: biochemical
For experiment [1], the target named is T1, PDE9A2 (Homo sapiens, UniProt O76083).
T1 construct: purchased Reaction Biology Corporation, Malvern, Pa
The experiment in a line: Phosphodiesterase enzyme screening assay, PDE9A2. The conditions noted are these: read-out: Band (PDE9A2 IC50). Put shortly:
(§1)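 Read-out was electrophoretic mobility-shift separation on chip of fluorescent cyclic nucleotide from 5′-AMP/5′-GMP, with inhibition or enhancement judged against control wells (quadruplicate means). Reactions lasted 1 h at RT in HEPES pH 7.5 buffer with MgCl2, DTT and Brij plus 4.0 μM cGMP substrate, then were halted with EDTA stop buffer.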

Experiment [2] has as its target T2, PDE1A (Homo sapiens, UniProt P54750).
T2 construct: purchased Reaction Biology Corporation, Malvern, Pa
Description: Phosphodiesterase enzyme screening assay, PDE1A. In outline:
as §1

Experiment [3] addresses T3, PDE1B (Homo sapiens, UniProt Q01064).
T3 construct: purchased Reaction Biology Corporation, Malvern, Pa
The experiment in a line: Phosphodiesterase enzyme screening assay, PDE1B. In outline:
as §1

Where [4] appears, read: Table 1, 10 concentrations, 4.0 μM cGMP substrate, 1 hour at R.T.
Setting [5] is: Table 1, ratio of IC50 values, value greater than 1 indicates greater selectivity for PDE9A2.
Setting [6] is: ratio of IC50 values, PDE1A versus PDE9A2, value greater than 1 indicates greater selectivity for PDE9A2.
Setting [7] is: ratio of IC50 values, PDE1B versus PDE9A2, value greater than 1 indicates greater selectivity for PDE9A2.
Setting [8] is: Table 2, ratio of IC50 values, value greater than 1 indicates greater selectivity for PDE9A2.
Where [9] appears, read: 4.0 μM cGMP substrate, 1 hour at R.T.
Setting [10] is: ratio of IC50 values PDE1A / PDE9A2, value greater than 1 = greater selectivity for PDE9A2.
The mark [11] stands for this setting: ratio of IC50 values PDE1B / PDE9A2, value greater than 1 = greater selectivity for PDE9A2.
Where [12] appears, read: ratio of IC50 values, value greater than 1 indicates greater selectivity for PDE9A2.

SMILES strings stand for the structures. Where two headings read alike, the source gives them in different places. Bounds are passed on as bounds.

T3 sequence (Q01064 whole entry): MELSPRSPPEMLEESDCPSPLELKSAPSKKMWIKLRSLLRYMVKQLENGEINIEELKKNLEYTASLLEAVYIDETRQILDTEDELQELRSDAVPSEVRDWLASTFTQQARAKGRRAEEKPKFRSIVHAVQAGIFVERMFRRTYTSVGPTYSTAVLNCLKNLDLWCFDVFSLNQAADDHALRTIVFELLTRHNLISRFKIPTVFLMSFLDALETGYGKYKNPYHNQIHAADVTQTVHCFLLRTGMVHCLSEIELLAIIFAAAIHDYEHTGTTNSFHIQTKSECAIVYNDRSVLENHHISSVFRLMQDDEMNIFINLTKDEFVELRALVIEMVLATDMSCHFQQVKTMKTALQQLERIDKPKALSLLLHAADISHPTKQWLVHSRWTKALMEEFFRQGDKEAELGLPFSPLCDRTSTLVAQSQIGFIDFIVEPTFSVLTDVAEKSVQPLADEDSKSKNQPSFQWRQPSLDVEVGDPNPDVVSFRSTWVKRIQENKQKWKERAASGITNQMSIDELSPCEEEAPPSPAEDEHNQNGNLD
T1 sequence (O76083 1-533 isoform O76083-2): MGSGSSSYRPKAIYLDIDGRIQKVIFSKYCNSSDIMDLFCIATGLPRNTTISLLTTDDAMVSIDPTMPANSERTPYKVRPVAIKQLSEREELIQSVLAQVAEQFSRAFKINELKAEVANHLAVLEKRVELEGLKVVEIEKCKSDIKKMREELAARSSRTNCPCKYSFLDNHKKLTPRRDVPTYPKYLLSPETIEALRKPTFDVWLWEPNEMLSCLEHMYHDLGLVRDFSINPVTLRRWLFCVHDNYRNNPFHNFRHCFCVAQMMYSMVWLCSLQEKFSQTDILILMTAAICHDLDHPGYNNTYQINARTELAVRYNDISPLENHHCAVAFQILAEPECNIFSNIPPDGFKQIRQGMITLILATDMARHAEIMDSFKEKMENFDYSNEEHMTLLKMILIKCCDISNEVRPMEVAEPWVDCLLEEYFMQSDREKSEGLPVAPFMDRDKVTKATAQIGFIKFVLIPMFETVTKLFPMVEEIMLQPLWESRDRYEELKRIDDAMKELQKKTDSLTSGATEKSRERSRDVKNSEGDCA
T2 sequence (P54750 whole entry): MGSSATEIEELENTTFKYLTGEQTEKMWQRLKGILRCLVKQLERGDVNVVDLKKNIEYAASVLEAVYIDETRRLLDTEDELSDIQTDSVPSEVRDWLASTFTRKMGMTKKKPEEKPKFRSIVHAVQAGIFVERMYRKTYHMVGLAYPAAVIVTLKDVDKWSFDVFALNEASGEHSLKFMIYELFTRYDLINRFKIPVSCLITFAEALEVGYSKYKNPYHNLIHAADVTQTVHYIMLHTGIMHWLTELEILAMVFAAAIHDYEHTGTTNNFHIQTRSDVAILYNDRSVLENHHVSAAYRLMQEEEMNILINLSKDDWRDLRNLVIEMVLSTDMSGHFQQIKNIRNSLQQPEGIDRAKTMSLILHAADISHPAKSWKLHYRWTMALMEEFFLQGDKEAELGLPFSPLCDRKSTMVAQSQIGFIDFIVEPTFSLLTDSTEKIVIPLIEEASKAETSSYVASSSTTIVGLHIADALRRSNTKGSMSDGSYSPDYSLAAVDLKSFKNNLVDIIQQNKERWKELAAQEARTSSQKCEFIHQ

With `CC1CN(Cc2ccccc2)CC1c1nn2c(C3CCC(F)(F)CC3)ncc2c(=O)[nH]1` (single isomer, unassigned; (+)) [(+)-2-((3,4-trans)-1-benzyl-4-methylpyrrolidin-3-yl)-7-(4,4-difluorocyclohexyl)imidazo[5,1-f][1,2,4]triazin-4(3H)-one], the IC50 in experiment [1] (setting [4]) was below 1 µM. In experiment [2] (setting [5]), the “PDE1A selectivity (versus PDE9A2)” value came out at 309. Moreover, the “PDE1B selectivity (versus PDE9A2)” value in experiment [3] (setting [5]) is listed as 496.

As to `Cc1cc(F)c(F)cc1-c1ncc2c(=O)[nH]c(C3CN(Cc4ccccc4)CC3C)nn12` (single isomer, unassigned; (+)) [(+)-2-((3,4-trans)-1-benzyl-4-methylpyrrolidin-3-yl)-7-(4,5-difluoro-2-methylphenyl)imidazo[5,1-f][1,2,4]triazin-4(3H)-one], in experiment [1], the IC50 was below 1 µM. Moreover, the “PDE1A selectivity (versus PDE9A2)” value in experiment [2] (setting [6]) is 174. Also, in experiment [3] (setting [7]), the “PDE1B selectivity (versus PDE9A2)” value is recorded as 143.

As for `CC1CN(Cc2ccccc2)CC1c1nn2c(-c3ccc(F)cc3)ncc2c(=O)[nH]1` (single isomer, unassigned; (+)) [(+)-2-((3,4-trans)-1-benzyl-4-methylpyrrolidin-3-yl)-7-(4-fluorophenyl)imidazo[5,1-f][1,2,4]triazin-4(3H)-one], the IC50 in experiment [1] is below 1 µM. For the same compound, the “PDE1A selectivity (versus PDE9A2)” value in experiment [2] (setting [6]) is 220. In experiment [3] (setting [7]), the “PDE1B selectivity (versus PDE9A2)” value stood at 286.

Take `Cc1ccncc1-c1ncc2c(=O)[nH]c(C3CN(Cc4ccccc4)CC3C)nn12` (single isomer, unassigned; (+)) [(+)-2-((3,4-trans)-1-benzyl-4-methylpyrrolidin-3-yl)-7-(4-methylpyridin-3-yl)imidazo[5,1-f][1,2,4]triazin-4(3H)-one]: the IC50 in experiment [1] was below 1 µM. Also, the “PDE1A selectivity (versus PDE9A2)” value in experiment [2] (setting [6]) was found to be 148. In addition, the “PDE1B selectivity (versus PDE9A2)” value in experiment [3] (setting [7]) is recorded as 379.

Turning to `Cc1ccccc1-c1ncc2c(=O)[nH]c(C3CN(Cc4ccccc4)CC3C)nn12` (single isomer, unassigned; (+)) [(+)-2-((3,4-trans)-1-benzyl-4-methylpyrrolidin-3-yl)-7-(o-tolyl)imidazo[5,1-f][1,2,4]triazin-4(3H)-one], the IC50 in experiment [1] is below 1 µM. Also, the “PDE1A selectivity (versus PDE9A2)” value in experiment [2] (setting [6]) was 461. Further, the “PDE1B selectivity (versus PDE9A2)” value in experiment [3] (setting [7]) is 531.

For `CCC(CC)c1ncc2c(=O)[nH]c(C3CN(Cc4ccccc4)CC3C)nn12` (single isomer, unassigned; (+)) [(+)-2-((3,4-trans)-1-benzyl-4-methylpyrrolidin-3-yl)-7-(pentan-3-yl)imidazo[5,1-f][1,2,4]triazin-4(3H)-one], in experiment [1], the IC50 was below 1 µM. In addition, the “PDE1A selectivity (versus PDE9A2)” value in experiment [2] (setting [6]) was found to be 175. Besides, in experiment [3] (setting [7]), the “PDE1B selectivity (versus PDE9A2)” value was determined as 86.

For the compound `CC1CN(Cc2ccccc2)CC1c1nn2c(-c3ccccc3)ncc2c(=O)[nH]1` (single isomer, unassigned; (+)) [(+)-2-((3,4-trans)-1-benzyl-4-methylpyrrolidin-3-yl)-7-phenylimidazo[5,1-f][1,2,4]triazin-4(3H)-one], the IC50 in experiment [1] was below 1 µM. The “PDE1A selectivity (versus PDE9A2)” value in experiment [2] (setting [6]) was determined as 4. Also, the “PDE1B selectivity (versus PDE9A2)” value in experiment [3] (setting [7]) was 12.

For the compound `CC1CN(CCc2cncnc2)CC1c1nn2c(C3CCOCC3)ncc2c(=O)[nH]1` (single isomer, unassigned; (+)) [(+)-2-((3,4-trans)-4-methyl-1-(2-(pyrimidin-5-yl)ethyl)pyrrolidin-3-yl)-7-(tetrahydro-2H-pyran-4-yl)imidazo[5,1-f][1,2,4]triazin-4(3H)-one], the IC50 in experiment [1] (Table 2, 10 concentrations, 4.0 μM cGMP substrate, 1 hour at R.T.) was below 1 µM. In experiment [2] (setting [8]), the “PDE1A selectivity (versus PDE9A2)” value turned out to be 71. Further, the “PDE1B selectivity (versus PDE9A2)” value in experiment [3] (setting [8]) is reported as 89.

In the case of `CC1CN(Cc2ccccc2N2CCCC2)CC1c1nn2c(C3CCOCC3)ncc2c(=O)[nH]1` (single isomer, unassigned; (+)) [(+)-2-((3,4-trans)-4-methyl-1-(2-(pyrrolidin-1-yl)benzyl)pyrrolidin-3-yl)-7-(tetrahydro-2H-pyran-4-yl)imidazo[5,1-f][1,2,4]triazin-4(3H)-one], the IC50 in experiment [1] (setting [4]) is below 1 µM. Further, in experiment [2] (setting [5]), the “PDE1A selectivity (versus PDE9A2)” value is 184. For the same compound, in experiment [3] (setting [5]), the “PDE1B selectivity (versus PDE9A2)” value is given as 213.

For `CC1CN(Cc2ccccc2OC(F)(F)F)CC1c1nn2c(C3CCOCC3)ncc2c(=O)[nH]1` (single isomer, unassigned; (+)) [(+)-2-((3,4-trans)-4-methyl-1-(2-(trifluoromethoxy)benzyl)pyrrolidin-3-yl)-7-(tetrahydro-2H-pyran-4-yl)imidazo[5,1-f][1,2,4]triazin-4(3H)-one], in experiment [1] (setting [9]), the IC50 is below 1 µM. Moreover, the “PDE1A selectivity (versus PDE9A2)” value in experiment [2] (setting [10]) came out at 173. In addition, the “PDE1B selectivity (versus PDE9A2)” value in experiment [3] (setting [11]) was 24.

Regarding `CC1CN(Cc2ccccc2C(F)(F)F)CC1c1nn2c(C3CCOCC3)ncc2c(=O)[nH]1` (single isomer, unassigned; (+)) [(+)-2-((3,4-trans)-4-methyl-1-(2-(trifluoromethyl)benzyl)pyrrolidin-3-yl)-7-(tetrahydro-2H-pyran-4-yl)imidazo[5,1-f][1,2,4]triazin-4(3H)-one], the IC50 in experiment [1] (setting [4]) is below 1 µM. In addition, the “PDE1A selectivity (versus PDE9A2)” value in experiment [2] (setting [5]) came out at 73. For the same compound, the “PDE1B selectivity (versus PDE9A2)” value in experiment [3] (setting [5]) came to 16.

Consider `Cc1ccccc1CN1CC(C)C(c2nn3c(C4CCOCC4)ncc3c(=O)[nH]2)C1` (single isomer, unassigned; (+)) [(+)-2-((3,4-trans)-4-methyl-1-(2-methylbenzyl)pyrrolidin-3-yl)-7-(tetrahydro-2H-pyran-4-yl)imidazo[5,1-f][1,2,4]triazin-4(3H)-one], for which the IC50 in experiment [1] (setting [4]) is below 1 µM. In experiment [2] (setting [5]), the “PDE1A selectivity (versus PDE9A2)” value came to 249. The “PDE1B selectivity (versus PDE9A2)” value in experiment [3] (setting [5]) is 105.

For `CC1CN(Cc2cccc(N3CCCC3)c2)CC1c1nn2c(C3CCOCC3)ncc2c(=O)[nH]1` (single isomer, unassigned; (+)) [(+)-2-((3,4-trans)-4-methyl-1-(3-(pyrrolidin-1-yl)benzyl)pyrrolidin-3-yl)-7-(tetrahydro-2H-pyran-4-yl)imidazo[5,1-f][1,2,4]triazin-4(3H)-one], in experiment [1] (setting [4]), the IC50 was below 1 µM. Also, the “PDE1A selectivity (versus PDE9A2)” value in experiment [2] (setting [5]) is 700. Besides, in experiment [3] (setting [5]), the “PDE1B selectivity (versus PDE9A2)” value was 1190.

For the compound `CC1CN(Cc2cccc(OC(F)(F)F)c2)CC1c1nn2c(C3CCOCC3)ncc2c(=O)[nH]1` (single isomer, unassigned; (+)) [(+)-2-((3,4-trans)-4-methyl-1-(3-(trifluoromethoxy)benzyl)pyrrolidin-3-yl)-7-(tetrahydro-2H-pyran-4-yl)imidazo[5,1-f][1,2,4]triazin-4(3H)-one], in experiment [1] (setting [4]), the concentration for half-maximal inhibition (IC50) was below 1 µM. In addition, the “PDE1A selectivity (versus PDE9A2)” value in experiment [2] (setting [5]) is listed as 261. In addition, the “PDE1B selectivity (versus PDE9A2)” value in experiment [3] (setting [5]) is given as 99.

Regarding `CC1CN(Cc2cccc(C(F)(F)F)c2)CC1c1nn2c(C3CCOCC3)ncc2c(=O)[nH]1` (single isomer, unassigned; (+)) [(+)-2-((3,4-trans)-4-methyl-1-(3-(trifluoromethyl)benzyl)pyrrolidin-3-yl)-7-(tetrahydro-2H-pyran-4-yl)imidazo[5,1-f][1,2,4]triazin-4(3H)-one], the IC50 in experiment [1] (setting [4]) is below 1 µM. Also, the “PDE1A selectivity (versus PDE9A2)” value in experiment [2] (setting [5]) amounted to 203. In addition, the “PDE1B selectivity (versus PDE9A2)” value in experiment [3] (setting [5]) stood at 86.

`Cc1cccc(CN2CC(C)C(c3nn4c(C5CCOCC5)ncc4c(=O)[nH]3)C2)c1` (single isomer, unassigned; (+)) [(+)-2-((3,4-trans)-4-methyl-1-(3-methylbenzyl)pyrrolidin-3-yl)-7-(tetrahydro-2H-pyran-4-yl)imidazo[5,1-f][1,2,4]triazin-4(3H)-one]: the half-inhibitory concentration (IC50) in experiment [1] (setting [4]) was below 1 µM. Moreover, the “PDE1A selectivity (versus PDE9A2)” value in experiment [2] (setting [5]) stood at 442. The “PDE1B selectivity (versus PDE9A2)” value in experiment [3] (setting [5]) was determined as 402.

Take `CC1CN(c2nccc(C(F)(F)F)n2)CC1c1nn2c(C3CCOCC3)ncc2c(=O)[nH]1` (single isomer, unassigned; (+)) [(+)-2-((3,4-trans)-4-methyl-1-(4-(trifluoromethyl)pyrimidin-2-yl)pyrrolidin-3-yl)-7-(tetrahydro-2H-pyran-4-yl)imidazo[5,1-f][1,2,4]triazin-4(3H)-one]: in experiment [1] (setting [9]), the IC50 is below 1 µM. In addition, the “PDE1A selectivity (versus PDE9A2)” value in experiment [2] (setting [10]) is reported as 7. Moreover, in experiment [3] (setting [11]), the “PDE1B selectivity (versus PDE9A2)” value turned out to be 1.

Regarding `CC1CN(Cc2ncn(C)n2)CC1c1nn2c(C3CCOCC3)ncc2c(=O)[nH]1` (single isomer, unassigned; (+)) [(+)-2-((3,4-trans)-4-methyl-1-((1-methyl-1H-1,2,4-triazol-3-yl)methyl)pyrrolidin-3-yl)-7-(tetrahydro-2H-pyran-4-yl)imidazo[5,1-f][1,2,4]triazin-4(3H)-one], the IC50 in experiment [1] is below 1 µM. The “PDE1A selectivity (versus PDE9A2)” value in experiment [2] (setting [12]) was 208. For the same compound, the “PDE1B selectivity (versus PDE9A2)” value in experiment [3] (setting [12]) is reported as 266.

With `CC1CN(Cc2nc3ccccc3n2C)CC1c1nn2c(C3CCOCC3)ncc2c(=O)[nH]1` (single isomer, unassigned; (+)) [(+)-2-((3,4-trans)-4-methyl-1-((1-methyl-1H-benzo[d]imidazol-2-yl)methyl)pyrrolidin-3-yl)-7-(tetrahydro-2H-pyran-4-yl)imidazo[5,1-f][1,2,4]triazin-4(3H)-one], the IC50 in experiment [1] (setting [4]) is below 1 µM. Besides, the “PDE1A selectivity (versus PDE9A2)” value in experiment [2] (setting [5]) stood at 181. Further, in experiment [3] (setting [5]), the “PDE1B selectivity (versus PDE9A2)” value turned out to be 356.
